# Laboratory results: patent US20140296137A1, “METHODS AND COMPOSITIONS FOR CONTROLLING ROTIFERS” (Los Alamos National Security, LLC, priority 2013, published 2014)
# Ends that are not written are not given here.
# How the values were obtained:
# [1] = system: Adineta vaga; type: in vivo; set-up: key to the marks not given beside the values; conditions: AMP 0.5 mg/mL, 24 hr time point, room temperature, visual motility score
# Excerpt: (§1) Briefly, the rotifer motility assay used herein in the presence of a biocontrol agent (e.g., AMP) may be used as a measure of relative rotifer viability and competency. Rotifer diet, of which algae is considered to be an important food source, is one of the key environmental factors that impact the growth and multiplication of rotifers. In effect, the inability of a rotifer to be mobile (i.e., inability to swim toward a food source and/or to have mobile cilia that help trap food) prevents the rotifer from ingesting sufficient nutrients to further grow and reproduce. Thus, any approach that reduces and/or inhibits rotifer motility has a significant impact on an individual rotifer and therefore rotifer populations. With respect to algae cultures, reducing and/or inhibiting rotifer motility prevents and/or reduces any negative impact rotifers have on algae cultures (e.g., open pond systems for algae biomass and biofuel production). In other words, reducing and/or inhibiting rotifer motility reduces and/or prevents rotifers (e.g., infestations) from ingesting and consequently damaging algae cultures use in biofuel production.
# (§2) The effect of the insecticidal and non-insecticidal AMPs of Table 2 (Example 1) on three different rotifer species was measured. The three rotifer species were Adineta vaga and Philodina acuticornis (class Bdelloid rotifers), and Brachionus (Monogononta class). A visual motility assay was used to determine the impact of the individual AMPs on rotifer viability. In each case, a light microscope with 20× magnification was used to observe rotifer motility (activity). […] FIGS. 1A, 1C and 1E show a 20× magnification of Adineta vaga, Philodina acuticornis and Brachionus (untreated), respectively. FIGS. 1B, 1D and 1F show a 20× magnification of Adineta vaga, Philodina acuticornis and Brachionus (AMP treated), respectively.
# (§3) Rotifer cultures were initiated in 12-well or 24-well plates at a density of approximately 100-200 rotifers/mL. The 12-well plates contained a volume of 1 mL per well, and the 24-well plates contained a volume of about 0.25 mL to about 0.35 mL per well. Individual rotifer cultures (individual wells) were incubated with a select AMP at a concentration of 0.5 mg/mL (or a range of about 78 μM to about 365 μM) for 18, 21 and 24 hours at room temperature. The rotifer cultures were monitored by preparing microscopy slides with a small sample taken from the individual wells. The slides were then visualized under a 20× magnification microscope for rotifer motility. […] The scoring system was based on observing a subset of the rotifer population from each well. The impact on the subset of rotifers observed served as a representative of the impact on the entire rotifer population for that particular AMP treatment.
# (§4) A summary of the motility assay (or “Kill Assay”) for each insecticidal and non-insecticidal AMP incubated with the three different rotifer species for the 24 hour time point is provided below in Table 5 (insecticidal AMPs) and Table 6 (non-insecticidal AMPs). The 18 and 21 hour time points gave similar results to the 24 hour time point.
# [2] = system: Philodina acuticornis; type: in vivo; set-up: key to the marks not given beside the values; conditions: AMP 0.5 mg/mL, 24 hr time point, room temperature, visual motility score
# Excerpt: as §1, §2, §3, §4
# [3] = system: Chlamydomonas reinhardtii; conditions: 5-6 days, room temperature, 96-well, algae colour under 20× microscope; ND = AMP killed all the algae
# Experimental: (§5) This example provides the minimal inhibitory concentration (MIC) of antimicrobial peptides (AMPs) for algae. […] Therefore, the tolerance of algae to the AMPs listed in Table 2 of Example 1 was measured.
# (§6) Briefly, the algae viability assay used herein measured the “health” of the algae cultures by looking at the color of the algae. […] A visual assay was used to determine the MIC for the individual AMPs on the algae. In each case, a light microscope with 20× magnification was used to observe algae color.
# (§7) The effect of insecticidal and non-insecticidal AMPs on three different algae species was measured. The three algae species were Auxenochlorella protothecoides, Chlorella sorokiniana and Chlamydomonas reinhardtii.
# (§8) Algae cultures were initiated in 96-well plates at an OD 750 of approximately 0.1. […] The antibiotics hygromycin and paromycin served as positive controls for inhibiting and/or reducing the growth rate of algae. […] The algae cultures were monitored by preparing microscopy slides with a small sample taken from the individual wells. The algae slides were then visualized under a 20× magnification microscope for algae viability as measured by algae color.
# [4] = system: Chlorella sorokiniana; conditions: 5-6 days, room temperature, 96-well, algae colour under 20× microscope; ND = AMP killed all the algae
# Experimental: as §5, §6, §7, §8
# [5] = system: Chlorella protothecoides; conditions: 5-6 days, room temperature, 96-well, algae colour under 20× microscope; ND = AMP killed all the algae
# Experimental: as §5, §6, §7, §8
# [6] = system: three algae species; test: Algae viability assay, summary statements over the three algae species; type: cell-based; conditions: comparison of Tables 3 and 4 with Tables 5 and 6
# Experimental: as §5, §6, §7
# Algae cultures were initiated in 96-well plates at an OD 750 of approximately 0.1. […] The antibiotics hygromycin and paromycin served as positive controls for inhibiting and/or reducing the growth rate of algae. Algae cultured in water or media served as a negative control (i.e., no effect on growth). The algae cultures were monitored by preparing microscopy slides with a small sample taken from the individual wells. The algae slides were then visualized under a 20× magnification microscope for algae viability as measured by algae color. […]
# [7] = system: three rotifer species; test: Rotifer visual motility assay, summary statements over the three rotifer species; type: in vivo, Adineta vaga, Philodina acuticornis and Brachionus; conditions: AMP 0.5 mg/mL
# Excerpt: as §1, with “In other words, reducing and/or inhibiting rotifer motility reduces and/or prevents rotifers (e.g., infestations) from ingesting and consequently damaging algae cultures use in biofuel production.” left out
# The effect of the insecticidal and non-insecticidal AMPs of Table 2 (Example 1) on three different rotifer species was measured. […]
# Rotifer cultures were initiated in 12-well or 24-well plates at a density of approximately 100-200 rotifers/mL. […] The rotifer cultures were monitored by preparing microscopy slides with a small sample taken from the individual wells. […]
# [8] = system: Brachionus; type: in vivo; conditions: AMP 0.5 mg/mL, 24 hr time point, room temperature, visual motility score
# Excerpt: as §1, §2, §3, §4
Sequence,“Kill” Efficiency Adineta vaga [1],“Kill” Efficiency Philodina [2],Minimal Inhibitory Concentration (MIC) Chlamydomonas reinhardtii [3],Minimal Inhibitory Concentration (MIC) Chlorella sorokiana [4],Minimal Inhibitory Concentration (MIC) Chlorella protothecoides [5],tolerance of algae to the AMP (in words) [6],negative impact on rotifer motility (in words) [7],“Kill” Efficiency Brachionus [8]
FIGTALGIASAIPAIVKLFK [Ponericin W6],++,++,61.6 µM,492.5 µM,No Affect,highly tolerated by algae,high negative impact,+++
"FLPLIGKVLSGIL [Temporin F, Temporin-F]",,,91.3 µM,730.7 µM,365 µM,highly tolerated by algae,high negative impact,
